Laboratory results reported in PubChem BioAssay AID588462 (The Scripps Research Institute Molecular Screening Center, 2011).
pIC50: −log10 of the molar value. Active and inactive are the calls of the source. How the calls were made is not given here.

What was measured:
Assay in all cases: PAD1-3 enzyme inhibition potency, late-stage follow-up, biochemical, colorimetric, BAEE substrate, recombinant PAD1-3 (AID 588462)
[1] = molecular target: Protein-arginine deiminase type-2 (Homo sapiens) (UniProt Q9Y2J8); conditions: recombinant PAD1-3, BAEE citrullination, colorimetric absorbance; PAD2
[2] = molecular target: Protein-arginine deiminase type-1 (Homo sapiens) (UniProt Q9ULC6); conditions: recombinant PAD1-3, BAEE citrullination, colorimetric absorbance; PAD1
[3] = molecular target: Protein-arginine deiminase type-3 (Homo sapiens) (UniProt Q9ULW8); conditions: recombinant PAD1-3, BAEE citrullination, colorimetric absorbance; PAD3
Protein-arginine deiminase type-3 (Homo sapiens), sequence (Q9ULW8 whole entry, looked up): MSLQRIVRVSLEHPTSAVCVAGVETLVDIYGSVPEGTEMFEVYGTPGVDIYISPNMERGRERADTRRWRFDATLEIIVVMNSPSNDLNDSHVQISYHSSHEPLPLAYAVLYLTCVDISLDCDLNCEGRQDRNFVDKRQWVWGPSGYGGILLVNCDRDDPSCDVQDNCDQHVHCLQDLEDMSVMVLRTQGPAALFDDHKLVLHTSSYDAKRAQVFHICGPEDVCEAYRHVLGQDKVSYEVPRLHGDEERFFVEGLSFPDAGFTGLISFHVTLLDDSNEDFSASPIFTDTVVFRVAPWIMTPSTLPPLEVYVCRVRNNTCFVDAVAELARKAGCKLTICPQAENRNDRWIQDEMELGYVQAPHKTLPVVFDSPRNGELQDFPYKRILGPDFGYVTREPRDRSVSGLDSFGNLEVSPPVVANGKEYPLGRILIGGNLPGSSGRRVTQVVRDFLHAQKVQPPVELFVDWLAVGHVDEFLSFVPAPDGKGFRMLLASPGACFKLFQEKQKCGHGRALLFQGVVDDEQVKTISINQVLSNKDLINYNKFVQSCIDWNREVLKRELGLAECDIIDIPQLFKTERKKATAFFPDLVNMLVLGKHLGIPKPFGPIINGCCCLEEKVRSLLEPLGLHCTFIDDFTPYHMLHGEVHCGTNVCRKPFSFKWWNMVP

Protein-arginine deiminase type-2 (Homo sapiens), sequence (Q9Y2J8 whole entry, looked up): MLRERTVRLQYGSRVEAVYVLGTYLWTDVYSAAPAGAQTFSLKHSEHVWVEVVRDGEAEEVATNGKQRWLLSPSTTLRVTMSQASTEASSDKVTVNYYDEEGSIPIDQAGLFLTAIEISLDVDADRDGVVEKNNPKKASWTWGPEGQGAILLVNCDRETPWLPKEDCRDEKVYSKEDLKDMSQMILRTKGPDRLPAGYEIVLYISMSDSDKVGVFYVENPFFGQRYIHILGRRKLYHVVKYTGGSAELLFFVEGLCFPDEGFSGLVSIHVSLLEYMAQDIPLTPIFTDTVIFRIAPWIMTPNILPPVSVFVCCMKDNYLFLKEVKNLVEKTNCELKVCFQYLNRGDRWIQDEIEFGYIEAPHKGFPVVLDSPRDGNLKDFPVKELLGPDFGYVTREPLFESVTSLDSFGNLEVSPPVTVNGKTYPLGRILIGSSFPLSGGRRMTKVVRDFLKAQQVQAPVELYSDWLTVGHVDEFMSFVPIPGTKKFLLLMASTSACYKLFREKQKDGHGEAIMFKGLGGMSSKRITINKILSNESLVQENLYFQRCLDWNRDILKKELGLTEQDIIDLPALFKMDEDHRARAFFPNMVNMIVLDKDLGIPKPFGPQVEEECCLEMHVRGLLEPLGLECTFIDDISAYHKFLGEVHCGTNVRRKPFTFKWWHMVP
Protein-arginine deiminase type-1 (Homo sapiens), sequence (Q9ULC6 whole entry, looked up): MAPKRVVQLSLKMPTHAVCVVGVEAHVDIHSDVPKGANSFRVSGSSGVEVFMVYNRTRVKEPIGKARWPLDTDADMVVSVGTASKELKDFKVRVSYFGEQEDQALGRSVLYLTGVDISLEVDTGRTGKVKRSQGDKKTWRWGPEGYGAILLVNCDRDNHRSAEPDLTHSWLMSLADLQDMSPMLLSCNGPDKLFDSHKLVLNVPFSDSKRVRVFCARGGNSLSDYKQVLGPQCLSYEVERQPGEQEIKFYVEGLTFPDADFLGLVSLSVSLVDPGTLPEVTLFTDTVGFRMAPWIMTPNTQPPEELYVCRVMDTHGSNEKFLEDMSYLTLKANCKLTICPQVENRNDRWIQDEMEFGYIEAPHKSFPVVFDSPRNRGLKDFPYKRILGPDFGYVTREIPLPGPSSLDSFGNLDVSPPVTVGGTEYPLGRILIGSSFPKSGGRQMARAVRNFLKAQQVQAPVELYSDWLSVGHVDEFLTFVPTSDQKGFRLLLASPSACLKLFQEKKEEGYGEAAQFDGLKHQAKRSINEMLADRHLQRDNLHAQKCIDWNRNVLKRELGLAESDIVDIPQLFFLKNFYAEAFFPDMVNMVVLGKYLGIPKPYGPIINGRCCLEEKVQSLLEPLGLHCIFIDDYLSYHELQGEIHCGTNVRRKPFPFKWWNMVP

COC1=C(N)C(=O)c2nc(-c3nc(C(=O)O)c(C)c(-c4ccc(OC)c(OC)c4O)c3N)ccc2C1=O
IC50 [1]: inactive
IC50 [2]: inactive
pIC50 [3]: 6.37
